Here are results for 30 compounds from patent publication US20230050653A1, “ROCK INHIBITOR AND PREPARATION METHOD THEREFOR AND USE THEREOF” (WUHAN LL SCIENCE AND TECHNOLOGY DEVELOPMENT CO., LTD., priority 2019, published 2023).

The target of one assay is T1, ROCK1 kinase (Homo sapiens, UniProt Q13464).
T1 construct: purchased Invitrogen
Put plainly: In vitro evaluation of ROCK1 kinase selectivity (HTRF KinEASE-STK time-resolved fluorometric assay). In kind it is biochemical. As for the experimental part: ROCK1 activity was detected using a 96-well (Cisbio) time-resolved fluorometric assay. The assay for ROCK1 was performed in the following assay buffer: 5 mM MgCl2 (Sigma), 1 mM DTT (Sigma) and 1× kinase buffer. The kinase buffer was used for dilution. 7.5 μL of ROCK1 kinase (Invitrogen) was added to a 96-well microplate to reach a final concentration of 0.4 ng/μL, and then 0.25 μL of test compound (DMSO content: 1%) was added. The mixture was incubated at room temperature for 0.5 h. To start the reaction, the kinase buffer was also used to mix ATP (Aladdin) and the substrate STK-substrate 2-biotin. 7.5 μL of the mixed solution was added to the microplate to reach final concentrations of 3.53 μM and 1 μM. The resulting mixture was incubated for 2 h at room temperature. […] was mixed with STK antibody-Cryptate, and then an appropriate volume of the mixture was mixed with an equal volume of streptavidin-XL665. 10 μL of the resulting mixture was added to stop the reaction. After further incubation for about 1 h, the microplate was read on a Molecular Devices SpectraMax i3x multifunctional microplate reader. The kinase buffer, the STK-substrate 2-biotin, the detection buffer, the STK antibody-Cryptate, and the streptavidin-XL665 were all from HTRF KinEASE-STK kit (Cisbio, 1000 tests, 61[…]).
A general note: TR-FRET usually uses a lanthanide donor and a delayed reading to cut background.

In the next assay the target is T2, ROCK2 kinase (Homo sapiens, UniProt O75116).
T2 construct: purchased Invitrogen PV3759
The experiment in a line: In vitro evaluation of ROCK2 kinase activity (HTRF KinEASE-STK time-resolved fluorometric assay). Format: biochemical. The procedure: ROCK2 activity screening. ROCK2 activity was detected using a 96-well (Cisbio) time-resolved fluorometric assay. The assay for ROCK2 was performed in the following assay buffer: 5 mM MgCl2 (Sigma), 1 mM DTT (Sigma) and 1× kinase buffer. The kinase buffer was used for dilution. 7.5 μL of ROCK2 kinase (Invitrogen, PV3759) was added to a 96-well microplate to reach a final concentration of 0.4 ng/μL, and then 0.25 μL of test compound (DMSO content: 1% (volume fraction)) was added. The mixture was incubated at room temperature for 0.5 h. To start the reaction, the kinase buffer was used to mix ATP (Aladdin) and the substrate STK-substrate 2-biotin. 7.5 μL of the mixed solution was added to the microplate to reach final concentrations of 6.739 μM and 1 μM. The resulting mixture was incubated for 2 h at room temperature. 5 mL of detection buffer was mixed with STK antibody-Cryptate, and then an appropriate volume of the mixture was mixed with an equal volume of streptavidin-XL665. 10 μL of the resulting mixture was added to the microplate to stop the reaction. After further incubation for about 1 h, the microplate was read on a Molecular Devices SpectraMax i3x multifunctional microplate reader. The kinase buffer, the STK-substrate 2-biotin, the detection buffer, the STK antibody-Cryptate, and the streptavidin-XL665 were all from HTRF KinEASE-STK kit (Cisbio, 1000 tests, 61[…]).

T1 sequence (Q13464 whole entry): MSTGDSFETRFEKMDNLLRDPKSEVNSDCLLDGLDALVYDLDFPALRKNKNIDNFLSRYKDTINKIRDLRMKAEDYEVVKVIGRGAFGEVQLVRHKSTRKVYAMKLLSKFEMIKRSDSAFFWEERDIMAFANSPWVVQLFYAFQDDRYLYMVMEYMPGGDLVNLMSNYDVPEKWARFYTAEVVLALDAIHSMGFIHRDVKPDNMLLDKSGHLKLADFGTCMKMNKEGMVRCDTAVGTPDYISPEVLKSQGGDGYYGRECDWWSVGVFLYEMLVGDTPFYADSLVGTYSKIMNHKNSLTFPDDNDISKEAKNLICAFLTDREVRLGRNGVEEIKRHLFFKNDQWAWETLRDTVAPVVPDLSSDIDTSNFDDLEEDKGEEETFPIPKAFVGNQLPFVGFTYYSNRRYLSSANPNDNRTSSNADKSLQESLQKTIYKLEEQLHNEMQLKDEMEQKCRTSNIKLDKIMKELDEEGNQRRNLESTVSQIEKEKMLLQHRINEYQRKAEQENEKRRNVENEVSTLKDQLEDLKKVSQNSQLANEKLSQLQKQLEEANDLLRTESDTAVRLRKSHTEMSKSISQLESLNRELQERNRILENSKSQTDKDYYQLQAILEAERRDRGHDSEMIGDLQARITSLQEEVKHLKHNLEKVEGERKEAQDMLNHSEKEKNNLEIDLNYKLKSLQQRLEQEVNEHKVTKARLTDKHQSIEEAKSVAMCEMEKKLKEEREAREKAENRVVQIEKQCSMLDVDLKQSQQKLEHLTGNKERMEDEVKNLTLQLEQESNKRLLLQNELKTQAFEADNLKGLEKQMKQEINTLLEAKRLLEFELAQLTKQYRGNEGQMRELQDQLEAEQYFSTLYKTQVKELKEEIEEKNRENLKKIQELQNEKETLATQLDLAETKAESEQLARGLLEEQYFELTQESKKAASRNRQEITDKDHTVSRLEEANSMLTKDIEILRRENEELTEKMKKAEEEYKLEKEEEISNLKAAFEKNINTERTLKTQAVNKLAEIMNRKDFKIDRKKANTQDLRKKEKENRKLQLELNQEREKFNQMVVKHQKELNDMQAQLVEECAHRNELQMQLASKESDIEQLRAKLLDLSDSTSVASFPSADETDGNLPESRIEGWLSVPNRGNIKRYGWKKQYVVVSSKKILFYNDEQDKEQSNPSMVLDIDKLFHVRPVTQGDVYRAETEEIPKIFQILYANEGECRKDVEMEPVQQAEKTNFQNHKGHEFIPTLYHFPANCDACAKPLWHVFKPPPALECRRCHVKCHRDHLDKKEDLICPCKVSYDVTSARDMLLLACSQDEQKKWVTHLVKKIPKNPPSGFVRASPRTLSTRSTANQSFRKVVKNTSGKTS
T2 sequence (O75116 whole entry): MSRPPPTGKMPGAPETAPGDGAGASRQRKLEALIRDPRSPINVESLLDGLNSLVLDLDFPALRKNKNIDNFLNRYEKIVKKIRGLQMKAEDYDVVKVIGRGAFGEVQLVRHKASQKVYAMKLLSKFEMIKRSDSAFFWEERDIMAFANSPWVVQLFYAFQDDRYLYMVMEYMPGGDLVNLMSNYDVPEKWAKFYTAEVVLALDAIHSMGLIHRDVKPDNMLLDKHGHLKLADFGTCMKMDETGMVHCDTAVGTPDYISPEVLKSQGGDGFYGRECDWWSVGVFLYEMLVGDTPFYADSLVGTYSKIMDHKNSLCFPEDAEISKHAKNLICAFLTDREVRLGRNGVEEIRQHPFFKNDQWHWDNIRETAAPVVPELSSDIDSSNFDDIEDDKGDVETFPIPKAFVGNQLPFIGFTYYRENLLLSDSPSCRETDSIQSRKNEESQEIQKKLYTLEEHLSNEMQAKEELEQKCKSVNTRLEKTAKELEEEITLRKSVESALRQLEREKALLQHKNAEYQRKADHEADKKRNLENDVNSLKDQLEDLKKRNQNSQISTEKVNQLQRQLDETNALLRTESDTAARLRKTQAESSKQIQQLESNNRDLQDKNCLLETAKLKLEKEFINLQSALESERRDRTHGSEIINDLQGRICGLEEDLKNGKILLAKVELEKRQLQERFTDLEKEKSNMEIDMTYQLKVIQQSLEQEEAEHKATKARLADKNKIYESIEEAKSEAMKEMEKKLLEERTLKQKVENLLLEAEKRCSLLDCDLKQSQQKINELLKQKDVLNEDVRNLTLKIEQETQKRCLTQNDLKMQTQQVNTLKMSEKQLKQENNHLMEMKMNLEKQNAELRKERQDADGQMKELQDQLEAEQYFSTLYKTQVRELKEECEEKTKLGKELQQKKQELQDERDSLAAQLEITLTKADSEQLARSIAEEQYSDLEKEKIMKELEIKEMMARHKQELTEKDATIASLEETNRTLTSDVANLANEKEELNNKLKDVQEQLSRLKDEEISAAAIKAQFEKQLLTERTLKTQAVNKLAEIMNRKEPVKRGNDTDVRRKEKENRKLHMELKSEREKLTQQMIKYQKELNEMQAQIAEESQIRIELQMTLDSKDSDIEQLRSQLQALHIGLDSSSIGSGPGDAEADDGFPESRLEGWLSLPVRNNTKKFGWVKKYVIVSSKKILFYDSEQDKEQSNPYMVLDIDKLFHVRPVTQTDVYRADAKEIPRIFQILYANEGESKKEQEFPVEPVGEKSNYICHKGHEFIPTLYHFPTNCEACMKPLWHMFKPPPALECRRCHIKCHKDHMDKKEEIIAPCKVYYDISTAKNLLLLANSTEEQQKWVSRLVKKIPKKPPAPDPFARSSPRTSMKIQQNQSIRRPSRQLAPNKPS

As usually defined, the IC50 is the concentration at which inhibition is half-maximal. High values mean a need for much substance, low ones inhibition by little substance. On to `COc1cc(F)cc(CNC(=O)c2ccn3cc(-c4cn[nH]c4)ccc23)c1` [Compound T237], for which the IC50 at ROCK1 kinase and against ROCK2 kinase was not above 50 nM in each case.

As for `COc1cc(F)cc(CNC(=O)c2cnn3cc(-c4cn[nH]c4)ccc23)c1` [Compound T239], the IC50 against ROCK1 kinase and at ROCK2 kinase was not above 50 nM throughout.

`O=C(NCc1ccn[nH]1)N1CCc2cc(-c3cn[nH]c3)ccc21` [Compound T240]: the IC50 against ROCK1 kinase and at ROCK2 kinase was 500 to 5000 nM in each case.

Consider `Cn1cc(CNC(=O)N2CCc3cc(-c4cn[nH]c4)ccc32)cn1` [Compound T241], for which the IC50 on ROCK1 kinase and on ROCK2 kinase was 50 to 500 nM each time.

As to `Cn1cnc(CNC(=O)N2CCc3cc(-c4cn[nH]c4)ccc32)c1` [Compound T242], the IC50 on ROCK1 kinase and on ROCK2 kinase was 50 to 500 nM each time.

Consider `COc1cc(F)cc(CN(Cc2ccccc2)C(=O)N2CCc3cc(-c4cn[nH]c4)ccc32)c1` [Compound T243], for which the IC50 on ROCK1 kinase and on ROCK2 kinase was 500 to 5000 nM throughout.

As to `CN(C)CCN(Cc1ccccc1)C(=O)N1CCc2cc(-c3cn[nH]c3)ccc21` [Compound T244], the IC50 at ROCK1 kinase and on ROCK2 kinase was 50 to 500 nM in each case.

As to `O=C(NCc1ccccc1)N1CCc2cc(-c3ccncc3)ccc21` [Compound T245], the IC50 at ROCK1 kinase and on ROCK2 kinase was 50 to 500 nM throughout.

For the compound `O=C(NCc1ccccc1)N1CCc2cc(-c3ccc4[nH]ccc4c3)ccc21` [Compound T246], the IC50 against ROCK1 kinase and against ROCK2 kinase was 500 to 5000 nM in each case.

As for `O=C(NCc1ccc2[nH]cnc2c1)N1CCc2cc(-c3cn[nH]c3)ccc21` [Compound T247], the IC50 at ROCK1 kinase and against ROCK2 kinase was 50 to 500 nM in each case.

Consider `CN(C)CCC(NC(=O)N1CCc2cc(-c3cn[nH]c3)ccc21)c1ccccc1` (stereo not drawn) [Compound T248], for which the IC50 against ROCK1 kinase and at ROCK2 kinase was 50 to 500 nM in each case.

On to `O=C(NC(c1ccccc1)c1ccccc1)N1CCc2cc(-c3cn[nH]c3)ccc21` [Compound T249], for which the IC50 against ROCK1 kinase and against ROCK2 kinase was 500 to 5000 nM each time.

Regarding `O=C(N[C@H](CN1CC(F)(F)C1)c1cc(F)cc(F)c1)N1CCc2cc(-c3c[nH]nc3F)c(F)cc21` [Compound T340], the IC50 at ROCK1 kinase was 50 to 500 nM; against ROCK2 kinase, not above 50 nM.

Take `COc1cc(F)cc(C(C)NC(=O)N2CCc3cc(-c4cn[nH]c4)c(F)cc32)c1` (stereo not drawn) [Compound T341, 6-fluoro-N-(1-(3-fluoro-5-methoxyphenyl)ethyl)-5-(1H-pyrazol-4-yl)indoline-1-carboxamide]: the IC50 on ROCK1 kinase and at ROCK2 kinase was not above 50 nM throughout.

Take `COc1cc(F)cc(CNC(=O)N2CCc3cc(-c4cn[nH]c4F)ccc32)c1` [Compound T342, 5-(5-fluoro-1H-pyrazol-4-yl)-N-(3-fluoro-5-methoxybenzyl)indoline-1-carboxamide]: the IC50 on ROCK1 kinase and against ROCK2 kinase was not above 50 nM in each case.

In the case of `CN1CC(COc2cc(F)cc(C(CO)NC(=O)N3CCc4cc(-c5cn[nH]c5)c(F)cc43)c2)C1` (stereo not drawn) [Compound T343, 6-fluoro-N-(1-(3-fluoro-5-((1-methylazetidin-3-yl)methoxy)phenyl)-2-hydroxyethyl)-5-(1H-pyrazol-4-yl)indoline-1-carboxamide], the IC50 was 500 to 5000 nM against ROCK1 kinase and 50 to 500 nM at ROCK2 kinase.

As to `COc1cc(F)cc([C@@H](CO)NC(=O)c2ncn3cc(-c4cn[nH]c4)ccc23)c1` [Compound T344, (S)-N-(1-(3-fluoro-5-methoxyphenyl)-2-hydroxyethyl)-6-(1H-pyrazol-4-yl)imidazo[1,5-a]pyridine-1-carboxamide], the IC50 against ROCK1 kinase and against ROCK2 kinase was not above 50 nM each time.

In the case of `O=C(NCc1cc(F)cc(OCC2CC2)c1)N1CCc2cc(-c3c[nH]nc3F)c(F)cc21` [Compound T347, N-(3-(cyclopropylmethoxy)5-fluorobenzyl)-6-fluoro-5-(3-fluoro-1H-pyrazol-4-yl)indoline-1-carboxamide], the IC50 against ROCK1 kinase and against ROCK2 kinase was not above 50 nM throughout.

In the case of `N#Cc1cc(F)cc(CNC(=O)N2CCc3cc(-c4c[nH]nc4N)c(F)cc32)c1` [Compound T348, 5-(3-amino-1H-pyrazol-4-yl)-N-(3-cyano-5-fluorobenzyl)-6-fluoroindoline-1-carboxamide], the IC50 on ROCK1 kinase and against ROCK2 kinase was 500 to 5000 nM each time.

As to `O=C(NCc1cc(F)cc(OC(F)(F)F)c1)N1CCc2cc(-c3cn[nH]c3)c(F)cc21` [Compound T349, 6-fluoro-N-(3-fluoro-5-(trifluoromethoxy)benzyl)-5-(1H-pyrazol-4-yl)indoline-1-carboxamide], the IC50 at ROCK1 kinase and against ROCK2 kinase was 500 to 5000 nM throughout.

Consider `O=C(COc1cc(F)cc([C@@H](CO)NC(=O)N2CCc3cc(-c4cn[nH]c4)c(F)cc32)c1)N1CC(F)(F)C1` [Compound T350, (S′)-N-(1-(3-(2-(3,3-difluoroazetidin-1-yl)-2-oxoethoxy)-5-fluorophenyl)-2-hydroxyethyl)-6-fluoro-5-(1H-pyrazol-4-yl)indoline-1-carboxamide], for which the IC50 against ROCK1 kinase and against ROCK2 kinase was not above 50 nM throughout.

Turning to `COc1cc(F)cc(CNC(=O)N2CCc3cc(-c4c[nH]nc4F)c(F)cc32)c1` [Compound T351, 6-fluoro-5-(3-fluoro-1H-pyrazol-4-yl)-N-(3-fluoro-5-methoxybenzyl)indoline-1-carboxamide], the IC50 against ROCK1 kinase and against ROCK2 kinase was not above 50 nM throughout.

As for `COc1cc(F)cc([C@@H](CO)NC(=O)c2cnc3cc(-c4cn[nH]c4)ccn23)c1` [Compound T352, (S)-N-(1-(3-fluoro-5-methoxyphenyl)-2-hydroxyethyl)-7-(1H-pyrazol-4-yl)imidazo(1,2-a)pyridine-3-carboxamide], the IC50 against ROCK1 kinase and against ROCK2 kinase was not above 50 nM throughout.

As to `COc1cc(F)cc(CNC(=O)N2CCc3cc(-c4cn[nH]c4)c(C#N)cc32)c1` [Compound T353, 6-cyano-N-(3-fluoro-5-methoxybenzyl)-5-(1H-pyrazol-4-yl)indoline-1-carboxamide], the IC50 fell in the range of 500 to 5000 nM against ROCK1 kinase and 50 to 500 nM against ROCK2 kinase.

Take `CC(C)COc1cc(F)cc([C@@H](CO)NC(=O)N2CCc3cc(-c4cn[nH]c4)c(F)cc32)c1` [Compound T354, (S)-6-fluoro-N-(1-(3-fluoro-3-isobutoxyphenyl)-2-hydroxyethyl)-5-(1H-pyrazol-4-yl)indoline-1-carboxamide]: the IC50 on ROCK1 kinase and against ROCK2 kinase was 50 to 500 nM throughout.

Consider `O=C(NC1CCCC1)c1cccc([C@@H](CO)NC(=O)N2CCc3cc(-c4cn[nH]c4)c(F)cc32)c1` [Compound T356-S, (S)-N-(1-(3-(cyclopentylcarbamoyl)phenyl)-2-hydroxyethyl)-6-fluoro-5-(1H-pyrazol-4-yl)indoline-1-carboxamide], for which the IC50 against ROCK1 kinase and against ROCK2 kinase was not above 50 nM throughout.

With `CC(C)NC(=O)COc1cc(F)cc([C@@H](CO)NC(=O)N2CCc3cc(-c4cn[nH]c4)c(F)cc32)c1` [Compound T358, (5)-6-fluoro-N-(1-(3-fluoro-5-(2-(isopropylamino)-2-oxoethoxy)phenyl)-2-hydroxyethyl)-5-(1H-pyrazol-4-yl)indoline-1-carboxamide], the IC50 on ROCK1 kinase and at ROCK2 kinase was not above 50 nM each time.

As to `COc1cc(F)cc([C@@H](CO)NC(=O)N2CCc3cc(-c4c[nH]nc4Cl)c(F)cc32)c1` [Compound T359, (S)-5-(3-chloro-1H-pyrazol-4-yl)-6-fluoro-N-(1-(3-fluoro-5-methoxyphenyl)-2-hydroxyethyl)indoline-1-carboxamide], the IC50 is 50 to 500 nM at ROCK1 kinase and not above 50 nM against ROCK2 kinase.

As for `CN(C)Cc1cc(F)cc(CNC(=O)c2ncn3cc(-c4cn[nH]c4)ccc23)c1` [Compound T360, N-(3-((dimethylamino)methyl)-5-fluorobenzyl)-6-(1H-pyrazol-4-yl)imidazo[1,5-a]pyridine-1-carboxamide], the IC50 against ROCK1 kinase was 500 to 5000 nM; on ROCK2 kinase, 50 to 500 nM.

As to `Nc1n[nH]cc1-c1cc2c(cc1F)N(C(=O)NCc1cc(F)cc(F)c1)CC2` [Compound T364, 5-(3-amino-1H-pyrazol-4-yl)-6-fluoro-N-(3,5-difluorobenzyl)indoline-1-carboxamide], the IC50 is 500 to 5000 nM at ROCK1 kinase and 50 to 500 nM at ROCK2 kinase.
